Measurements reported in ChEMBL document CHEMBL1275511, “Molecular and biochemical characterization of SHV-56, a novel inhibitor-resistant beta-lactamase from Klebsiella pneumoniae” (Antimicrob Agents Chemother, 2008).
In brackets after ≈: the same amount, converted by molar mass.

Experiments:
[1] = system: Klebsiella pneumoniae; experiment: Antimicrobial activity against Klebsiella pneumoniae Kp2792 expressing beta-lactamase SHV-56 by agar dilution method; format: functional
[2] = system: Escherichia coli; experiment: Antimicrobial activity against Escherichia coli JM109 harboring pE1 plasmid expressing beta-lactamase SHV-11 by agar dilution method; format: functional
[3] = system: Escherichia coli; experiment: Antimicrobial activity against Escherichia coli JM109 harboring pSC1 plasmid expressing beta-lactamase SHV-56 by agar dilution method; format: functional
[4] = system: Escherichia coli; experiment: Antimicrobial activity against Escherichia coli JM109 harboring pE1MD plasmid expressing beta-lactamase SHV-56 by agar dilution method; format: functional
[5] = system: Escherichia coli; experiment: Antimicrobial activity against Escherichia coli JM109 by agar dilution method; format: functional
[6] = system: Escherichia coli; experiment: Activity of Escherichia coli Inhibitor-resistant beta-lactamase SHV-56; conditions: JM109
[7] = system: Escherichia coli; experiment: Ratio of Kcat to Km for Escherichia coli Inhibitor-resistant beta-lactamase SHV-56; conditions: JM109
[8] = system: Klebsiella pneumoniae; experiment: Antimicrobial activity against Klebsiella pneumoniae Kp2792 expressing beta-lactamase SHV-56 by agar dilution method in presence of clavulanic acid; format: functional
[9] = system: Escherichia coli; experiment: Antimicrobial activity against Escherichia coli JM109 harboring pE1 plasmid expressing beta-lactamase SHV-11 by agar dilution method in presence of clavulanic acid; format: functional
[10] = system: Escherichia coli; experiment: Antimicrobial activity against Escherichia coli JM109 harboring pSC1 plasmid expressing beta-lactamase SHV-56 by agar dilution method in presence of clavulanic acid; format: functional
[11] = system: Escherichia coli; experiment: Antimicrobial activity against Escherichia coli JM109 harboring pE1MD plasmid expressing beta-lactamase SHV-56 by agar dilution method in presence of clavulanic acid; format: functional
[12] = system: Escherichia coli; experiment: Antimicrobial activity against Escherichia coli JM109 by agar dilution method in presence of clavulanic acid; format: functional
[13] = Inhibition of Escherichia coli Inhibitor-resistant beta-lactamase SHV-56; design: species or system JM109
[14] = system: Escherichia coli; experiment: Antimicrobial activity against Escherichia coli JM109 harboring pE1 plasmid expressing beta-lactamase SHV-11 by agar dilution method in presence of Sulbactam; format: functional
[15] = system: Escherichia coli; experiment: Antimicrobial activity against Escherichia coli JM109 harboring pSC1 plasmid expressing beta-lactamase SHV-56 by agar dilution method in presence of Sulbactam; format: functional
[16] = system: Escherichia coli; experiment: Antimicrobial activity against Escherichia coli JM109 harboring pE1MD plasmid expressing beta-lactamase SHV-56 by agar dilution method in presence of Sulbactam; format: functional
[17] = system: Klebsiella pneumoniae; experiment: microbe, parasite or virus in culture; conditions: Kp2792
[18] = system: Klebsiella pneumoniae; experiment: Antimicrobial activity against Klebsiella pneumoniae Kp2792 expressing beta-lactamase SHV-56 by agar dilution method in presence of Tazobactam; format: functional
[19] = system: Escherichia coli; experiment: Antimicrobial activity against Escherichia coli JM109 harboring pE1 plasmid expressing beta-lactamase SHV-11 by agar dilution method in presence of Tazobactam; format: functional
[20] = system: Escherichia coli; experiment: Antimicrobial activity against Escherichia coli JM109 harboring pSC1 plasmid expressing beta-lactamase SHV-56 by agar dilution method in presence of Tazobactam; format: functional
[21] = system: Escherichia coli; experiment: Antimicrobial activity against Escherichia coli JM109 harboring pE1MD plasmid expressing beta-lactamase SHV-56 by agar dilution method in presence of Tazobactam; format: functional
[22] = system: Escherichia coli; experiment: Antimicrobial activity against Escherichia coli JM109 by agar dilution method in presence of Tazobactam; format: functional
[23] = substrate: CC(=O)OCC1=C(C(=O)O)N2C(=O)[C@@H](NC(=O)Cc3cccs3)[C@H]2SC1; experiment: (§1) Activity of Escherichia coli beta-lactamase SHV-11; conditions: JM109
[24] = substrate: CC(C)(O/N=C(\C(=O)N[C@@H]1C(=O)N2C(C(=O)[O-])=C(C[n+]3ccccc3)CS[C@H]12)c1csc(N)n1)C(=O)O; experiment: as §1; conditions: JM109
[25] = substrate: CC1(C)S[C@@H]2[C@H](NC(=O)[C@H](C(=O)O)c3ccsc3)C(=O)N2[C@H]1C(=O)O; experiment: as §1; conditions: JM109
[26] = substrate: CCN1CCN(C(=O)N[C@@H](C(=O)N[C@@H]2C(=O)N3[C@@H]2SC(C)(C)[C@@H]3C(=O)O)c2ccccc2)C(=O)C1=O; experiment: as §1; conditions: JM109
[27] = substrate: CO/N=C(\C(=O)N[C@@H]1C(=O)N2C(C(=O)O)=C(COC(C)=O)CS[C@H]12)c1csc(N)n1; experiment: as §1; conditions: JM109
[28] = substrate: CO/N=C(\C(=O)N[C@@H]1C(=O)N2C(C(=O)O)=C(COC(N)=O)CS[C@H]12)c1ccco1; experiment: as §1; conditions: JM109
[29] = substrate: CO/N=C(\C(=O)N[C@@H]1C(=O)N2C(C(=O)O)=C(CSc3nc(=O)c(O)nn3C)CS[C@H]12)c1csc(N)n1; experiment: as §1; conditions: JM109
[30] = substrate: CO/N=C(\C(=O)N[C@@H]1C(=O)N2C(C(=O)[O-])=C(C[N+]3(C)CCCC3)CS[C@H]12)c1csc(N)n1; experiment: as §1; conditions: JM109
[31] = substrate: CO[C@@]1(NC(=O)Cc2cccs2)C(=O)N2C(C(=O)O)=C(COC(N)=O)CS[C@@H]21; experiment: as §1; conditions: JM109
[32] = substrate: C[C@H]1[C@H](NC(=O)/C(=N\OC(C)(C)C(=O)O)c2csc(N)n2)C(=O)N1S(=O)(=O)O; experiment: as §1; conditions: JM109
[33] = substrate: CC(=O)OCC1=C(C(=O)O)N2C(=O)[C@@H](NC(=O)Cc3cccs3)[C@H]2SC1; experiment: (§2) Ratio of Kcat to Km for Escherichia coli beta-lactamase SHV-11; conditions: JM109
[34] = substrate: CC1(C)S[C@@H]2[C@H](NC(=O)[C@H](C(=O)O)c3ccsc3)C(=O)N2[C@H]1C(=O)O; experiment: as §2; conditions: JM109
[35] = substrate: CCN1CCN(C(=O)N[C@@H](C(=O)N[C@@H]2C(=O)N3[C@@H]2SC(C)(C)[C@@H]3C(=O)O)c2ccccc2)C(=O)C1=O; experiment: as §2; conditions: JM109
[36] = substrate: CO/N=C(\C(=O)N[C@@H]1C(=O)N2C(C(=O)O)=C(COC(N)=O)CS[C@H]12)c1ccco1; experiment: as §2; conditions: JM109
[37] = substrate: CO/N=C(\C(=O)N[C@@H]1C(=O)N2C(C(=O)O)=C(CSc3nc(=O)c(O)nn3C)CS[C@H]12)c1csc(N)n1; experiment: as §2; conditions: JM109

CC1(C)S[C@@H]2[C@H](NC(=O)[C@H](C(=O)O)c3ccsc3)C(=O)N2[C@H]1C(=O)O [TICARCILLIN]
MIC [1]: > 4100 µg/mL
MIC [2]: 2050 µg/mL (≈ 5330 µM)
MIC [3]: > 4100 µg/mL
MIC [4]: 2050 µg/mL (≈ 5330 µM)
MIC [5]: 4 µg/mL (≈ 10.4 µM)
Km [6]: 450 µM
kcat [6]: 30 s⁻¹
kcat/Km [7]: 70000 M⁻¹ s⁻¹
MIC [8]: 1020 µg/mL
MIC [9]: 2 µg/mL
MIC [10]: 256 µg/mL
MIC [11]: 128 µg/mL
MIC [12]: 2 µg/mL

CO/N=C(\C(=O)N[C@@H]1C(=O)N2C(C(=O)O)=C(CSc3nc(=O)c(O)nn3C)CS[C@H]12)c1csc(N)n1
kcat [6]: < 0.01 s⁻¹

CC1(C)[C@H](C(=O)O)N2C(=O)C[C@H]2S1(=O)=O [SULBACTAM]
IC50 [13]: 300 nM

CC(C)(O/N=C(\C(=O)N[C@@H]1C(=O)N2C(C(=O)[O-])=C(C[n+]3ccccc3)CS[C@H]12)c1csc(N)n1)C(=O)O
kcat [6]: < 0.01 s⁻¹

CC1(C)S[C@@H]2[C@H](NC(=O)[C@H](N)c3ccccc3)C(=O)N2[C@H]1C(=O)O [AMPICILLIN]
MIC [1]: > 4100 µg/mL
MIC [2]: 1020 µg/mL (≈ 2930 µM)
MIC [3]: 2050 µg/mL (≈ 5860 µM)
MIC [4]: 1020 µg/mL (≈ 2930 µM)
MIC [5]: 4 µg/mL (≈ 11.4 µM)
MIC [14]: 128 µg/mL
MIC [15]: 128 µg/mL
MIC [16]: 64 µg/mL
MIC [17]: 128 µg/mL (≈ 366 µM)

CC(=O)OCC1=C(C(=O)O)N2C(=O)[C@@H](NC(=O)Cc3cccs3)[C@H]2SC1 [CEPHALOTHIN]
MIC [1]: 8 µg/mL (≈ 20.2 µM)
MIC [2]: 8 µg/mL (≈ 20.2 µM)
MIC [3]: 8 µg/mL (≈ 20.2 µM)
MIC [4]: 8 µg/mL (≈ 20.2 µM)
MIC [5]: 4 µg/mL (≈ 10.1 µM)
Km [6]: 20 µM
kcat [6]: 0.1 s⁻¹
kcat/Km [7]: 5000 M⁻¹ s⁻¹

CO/N=C(\C(=O)N[C@@H]1C(=O)N2C(C(=O)[O-])=C(C[N+]3(C)CCCC3)CS[C@H]12)c1csc(N)n1
MIC [1]: ≤ 0.1 µg/mL
MIC [5]: ≤ 0.1 µg/mL
kcat [6]: < 0.01 s⁻¹

C[C@@H](O)[C@H]1C(=O)N2C(C(=O)O)=C(SCCNC=N)C[C@H]12 [IMIPENEM ANHYDROUS]
MIC [1]: ≤ 0.1 µg/mL
MIC [5]: ≤ 0.1 µg/mL

CO/N=C(\C(=O)N[C@@H]1C(=O)N2C(C(=O)O)=C(COC(N)=O)CS[C@H]12)c1ccco1
kcat [6]: < 0.01 s⁻¹

CCN1CCN(C(=O)N[C@@H](C(=O)N[C@@H]2C(=O)N3[C@@H]2SC(C)(C)[C@@H]3C(=O)O)c2ccccc2)C(=O)C1=O [PIPERACILLIN]
MIC [1]: 512 µg/mL (≈ 989 µM)
MIC [2]: 64 µg/mL (≈ 124 µM)
MIC [3]: 512 µg/mL (≈ 989 µM)
MIC [4]: 64 µg/mL (≈ 124 µM)
MIC [5]: 2 µg/mL (≈ 3.86 µM)
Km [6]: 50 µM
kcat [6]: 50 s⁻¹
kcat/Km [7]: 1e+06 M⁻¹ s⁻¹
MIC [18]: 4 µg/mL
MIC [19]: 2 µg/mL
MIC [20]: 2 µg/mL
MIC [21]: 1 µg/mL
MIC [22]: 1 µg/mL

CO[C@@]1(NC(=O)Cc2cccs2)C(=O)N2C(C(=O)O)=C(COC(N)=O)CS[C@@H]21
kcat [6]: < 0.01 s⁻¹

C[C@H]1[C@H](NC(=O)/C(=N\OC(C)(C)C(=O)O)c2csc(N)n2)C(=O)N1S(=O)(=O)O
kcat [6]: < 0.01 s⁻¹

CO/N=C(\C(=O)N[C@@H]1C(=O)N2C(C(=O)O)=C(COC(C)=O)CS[C@H]12)c1csc(N)n1 [CEFOTAXIME]
MIC [1]: ≤ 0.1 µg/mL
MIC [5]: ≤ 0.1 µg/mL
kcat [6]: < 0.01 s⁻¹

CC1(C)S[C@@H]2[C@H](NC(=O)[C@H](N)c3ccc(O)cc3)C(=O)N2[C@H]1C(=O)O [AMOXICILLIN]
MIC [1]: > 4100 µg/mL
MIC [2]: 2050 µg/mL (≈ 5600 µM)
MIC [3]: 4100 µg/mL (≈ 11200 µM)
MIC [4]: 4100 µg/mL (≈ 11200 µM)
MIC [5]: 4 µg/mL (≈ 10.9 µM)
MIC [8]: 4100 µg/mL
MIC [9]: 2 µg/mL
MIC [10]: 512 µg/mL
MIC [11]: 256 µg/mL
MIC [12]: 2 µg/mL

B1: Beta-lactamase SHV-11 (Escherichia coli), Q7X575 (protein)
chain: MRYIRLCIISLLATLPLAVHASPQPLEQIKQSESQLSGRVGMIEMDLASGRTLTAWRADERFPMMSTFKVVLCGAVLARVDAGDEQLERKIHYRQQDLVDYSPVSEKHLADGMTVGELCAAAITMSDNSAANLLLATVGGPAGLTAFLRQIGDNVTRLDRWETELNEALPGDARDTTTPASMAATLRKLLTSQRLSARSQRQLLQWMVDDRVAGPLIRSVLPAGWFIADKTGAGERGARGIVALLGPNNKAERIVVIYLRDTPASMAERNQQIAGIGAALIEHWQR
Km [23]: 50 µM
kcat [23]: 0.5 s⁻¹
kcat [24]: < 0.01 s⁻¹
Km [25]: 20 µM
Km [26]: 40 µM
kcat [26]: 30 s⁻¹
kcat [27]: < 0.01 s⁻¹
Km [28]: 200 µM
kcat [28]: 0.05 s⁻¹
Km [29]: 300 µM
kcat [29]: 0.01 s⁻¹
kcat [30]: < 0.01 s⁻¹
kcat [31]: < 0.01 s⁻¹
kcat [32]: < 0.01 s⁻¹
kcat/Km [33]: 10000 M⁻¹ s⁻¹
kcat/Km [34]: 100000 M⁻¹ s⁻¹
kcat/Km [35]: 750000 M⁻¹ s⁻¹
kcat/Km [36]: 250 M⁻¹ s⁻¹
kcat/Km [37]: 350000 M⁻¹ s⁻¹
